Experimental data reported in US20050026949A1, “Methods of therapeutic treatment using amounts of retinoids without regard to body weight” (Allergan, Inc., priority 2003, published 2005).

Tests used:
[1] = PK and PD interaction studies of oral tazarotene with oral contraceptives (Example 8); format: in vivo, human
Protocol: It is the objective of this study to determine if there are pharmacokinetic (PK) and pharmacodynamic (PD) interactions between tazarotene and commonly prescribed oral contraceptives (OCs) when coadministered together.
Three separate clinical studies are conducted to evaluate the PK and PD interactions of oral tazarotene and OCs in healthy volunteers. Two studies evaluate daily doses of norethindrone (NE)/ethinyl estradiol (EE) with daily doses of tazarotene 1.1 mg (N=27) and 6 mg (N=29). The third study assesses the daily doses of norgestimate (NGM)/EE with daily doses of tazarotene 6 mg (N=26). OCs are administered for three consecutive menstrual cycles. Daily doses of tazarotene are started during the 2nd cycle and continued through the end of the studies. PK parameters for EE, NE, and NGM (AUC0-24 and Cmax) are determined before tazarotene dosing and after tazarotene dosing on day 6 of the 2nd and 3rd cycles. Serum concentrations of luteinizing hormone (LH) and follicle-stimulating hormone (FSH)-markers of contraceptive efficacy are also evaluated before tazarotene dosing and after tazarotene dosing on days 2, 4, and 6 of the 2nd and 3rd cycles. Serum progesterone levels are assessed on days 18 and 20 of the 2nd and 3rd cycles.
The plasma of each subject is tested for Cmax and AUC of tazarotenic acid, the primary active retinoid agent in systemic circulation as the result of the oral administration of tazarotene.

[2] = test system: patients treated for psoriasis; assay: Phase 3 studies of orally administered tazarotene for psoriasis: adverse events (Table 1); format: in vivo, human; conditions: Taz 4.5 mg
Protocol: A series of Phase 3 studies are conducted on orally administered tazarotene for the treatment of psoriasis. Adverse events (side effects) are monitored. In addition, published data for acitretin's side effects are also considered.

[3] = test system: patients treated for acne; assay: Studies of orally administered tazarotene for acne: adverse events (Table 2); format: in vivo, human; conditions: combined data from Studies 1 and 2 (N = 223)
Protocol: Studies are conducted on orally administered tazarotene for the treatment of acne. Adverse events (side effects) are monitored.

AP1 = AP1 antagonism
[4] = test system: patient with severe psoriasis; assay: Patient with severe psoriasis taking Ortho-Novum treated with tazarotene (Example 9); format: in vivo, human
Source text: The patient presents symptoms of severe psoriasis. The symptoms include lesions approximately 4 to 10 centimeters across appearing as raised patches of wine red skin many of which are covered in silvery white scales. The lesions are mostly dry and rough, and quite often noticeably warm to the touch. The lesions are present on the elbows, knees, scalp, and groin area. The patient experiences intense burning and itching associated with the lesions.
The patient is currently taking Ortho-Novum® for contraception.
Tazarotene at a dose of 6 mg per day is prescribed.

[5] = Study 3, treated with Tazarotene for 3 months (N = 220)
[6] = Study 3, treated with Tazarotene for 6 months (N = 92)
[7] = combined data from Studies 1 and 2 (N = 348)

## CCOC(=O)c1ccc(C#Cc2ccc3c(c2)C(C)(C)CCS3)nc1 [tazarotene]
[1]; orally, up to 6 mg once daily
  effect on PK or efficacy of NE/EE and NGM/EE oral contraceptives: does not affect
[1]; tazarotene 1.1 mg or 6 mg daily with NE/EE, 6 mg daily with NGM/EE
  90% confidence intervals of AUC0-24 and Cmax for EE, NE, and NGM: within the 80-125% boundary
[1]; tazarotene coadministered with oral contraceptives
  90% confidence intervals of FSH and LH: generally within the 80-125% boundary
[1]; tazarotene coadministered with oral contraceptives, days 18 and 20 of 2nd and 3rd cycles
  90% confidence intervals of progesterone concentrations: within the 80-125% boundary
[1]; tazarotene coadministered with oral contraceptives, follicular phase
  serum FSH and LH levels: remain within the normal ranges
[2]; [5]
  Alopecia: 1 (0.5) NUMBER OF (%) OF PATIENTS
  Arthralgia: 28 (12.7) NUMBER OF (%) OF PATIENTS
  Atrophy of skin: 0 (0.0) NUMBER OF (%) OF PATIENTS
  Back pain: 7 (3.2) NUMBER OF (%) OF PATIENTS
  Cheilitis: 149 (67.7) NUMBER OF (%) OF PATIENTS
  Dry Skin: 47 (21.4) NUMBER OF (%) OF PATIENTS
  Dry mouth/Oral dryness: 11 (5.0) NUMBER OF (%) OF PATIENTS
  Epistaxis: 1 (0.5) NUMBER OF (%) OF PATIENTS
  Erythematous rash/Erythema: 0 (0.0) NUMBER OF (%) OF PATIENTS
  Hyperesthesia: 0 (0.0) NUMBER OF (%) OF PATIENTS
  Nail Disorder: 1 (0.5) NUMBER OF (%) OF PATIENTS
  Paresthesia: 3 (1.4) NUMBER OF (%) OF PATIENTS
  Paronychia/Nail disorder: 1 (0.5) NUMBER OF (%) OF PATIENTS
  Pruritus: 11 (5.0) NUMBER OF (%) OF PATIENTS
  Rhinitis: 0 (0.0) NUMBER OF (%) OF PATIENTS
  Rigors/Chills: 1 (0.5) NUMBER OF (%) OF PATIENTS
  Skin peeling/Desquamation: 3 (1.4) NUMBER OF (%) OF PATIENTS
  Sticky skin/Skin disorder: 0 (0.0) NUMBER OF (%) OF PATIENTS
  Xerophthalmia/Eye disorder: 3 (1.4) NUMBER OF (%) OF PATIENTS
[2]; [6]
  Alopecia: 5 (5.4) NUMBER OF (%) OF PATIENTS
  Arthralgia: 30 (32.6) NUMBER OF (%) OF PATIENTS
  Atrophy of skin: 0 (0.0) NUMBER OF (%) OF PATIENTS
  Back pain: 10 (10.9) NUMBER OF (%) OF PATIENTS
  Cheilitis: 65 (70.7) NUMBER OF (%) OF PATIENTS
  Dry Skin: 24 (26.1) NUMBER OF (%) OF PATIENTS
  Dry mouth/Oral dryness: 2 (2.2) NUMBER OF (%) OF PATIENTS
  Epistaxis: 0 (0.0) NUMBER OF (%) OF PATIENTS
  Erythematous rash/Erythema: 0 (0.0) NUMBER OF (%) OF PATIENTS
  Hyperesthesia: 0 (0.0) NUMBER OF (%) OF PATIENTS
  Nail Disorder: 1 (1.1) NUMBER OF (%) OF PATIENTS
  Paresthesia: 1 (1.1) NUMBER OF (%) OF PATIENTS
  Paronychia/Nail disorder: 1 (1.1) NUMBER OF (%) OF PATIENTS
  Pruritus: 3 (3.3) NUMBER OF (%) OF PATIENTS
  Rhinitis: 0 (0.0) NUMBER OF (%) OF PATIENTS
  Rigors/Chills: 1 (1.1) NUMBER OF (%) OF PATIENTS
  Skin peeling/Desquamation: 1 (1.1) NUMBER OF (%) OF PATIENTS
  Sticky skin/Skin disorder: 0 (0.0) NUMBER OF (%) OF PATIENTS
  Xerophthalmia/Eye disorder: 1 (1.1) NUMBER OF (%) OF PATIENTS
[2]; [7]
  Alopecia: 1 (0.3) NUMBER OF (%) OF PATIENTS
  Arthralgia: 60 (17.2) NUMBER OF (%) OF PATIENTS
  Atrophy of skin: 0 (0.0) NUMBER OF (%) OF PATIENTS
  Back pain: 16 (4.6) NUMBER OF (%) OF PATIENTS
  Cheilitis: 228 (65.5) NUMBER OF (%) OF PATIENTS
  Dry Skin: 82 (23.6) NUMBER OF (%) OF PATIENTS
  Dry mouth/Oral dryness: 11 (3.2) NUMBER OF (%) OF PATIENTS
  Epistaxis: 2 (0.6) NUMBER OF (%) OF PATIENTS
  Erythematous rash/Erythema: 2 (0.6) NUMBER OF (%) OF PATIENTS
  Hyperesthesia: 0 (0.0) NUMBER OF (%) OF PATIENTS
  Nail Disorder: 2 (0.6) NUMBER OF (%) OF PATIENTS
  Paresthesia: 7 (2.0) NUMBER OF (%) OF PATIENTS
  Paronychia/Nail disorder: 2 (0.6) NUMBER OF (%) OF PATIENTS
  Pruritus: 21 (6.0) NUMBER OF (%) OF PATIENTS
  Rhinitis: 8 (2.3) NUMBER OF (%) OF PATIENTS
  Rigors/Chills: 9 (2.6) NUMBER OF (%) OF PATIENTS
  Skin peeling/Desquamation: 3 (0.9) NUMBER OF (%) OF PATIENTS
  Sticky skin/Skin disorder: 1 (0.3) NUMBER OF (%) OF PATIENTS
  Xerophthalmia/Eye disorder: 8 (2.3) NUMBER OF (%) OF PATIENTS
[3]
  Cheilitis: 134 (60.1) NUMBER OF (%) OF PATIENTS
  Conjunctivitis: 0 (0.0) NUMBER OF (%) OF PATIENTS
  Desquamation central face/Desquamation: 1 (0.4) NUMBER OF (%) OF PATIENTS
  Dry Skin: 79 (35.4) NUMBER OF (%) OF PATIENTS
  Dry nose: 7 (3.1) NUMBER OF (%) OF PATIENTS
  Epistaxis: 6 (2.7) NUMBER OF (%) OF PATIENTS
  Fingertip peeling/Desquamation: 1 (0.4) NUMBER OF (%) OF PATIENTS
  Headache: 26 (11.7) NUMBER OF (%) OF PATIENTS
  Irritation of eyes: 0 (0.0) NUMBER OF (%) OF PATIENTS
  Joint pain/Arthralgia: 18 (8.1) NUMBER OF (%) OF PATIENTS
  Peeling/Desquamation: 1 (0.4) NUMBER OF (%) OF PATIENTS
  Pruritus: 10 (4.5) NUMBER OF (%) OF PATIENTS
  Rash-dermatitis/Rash: 7 (3.1) NUMBER OF (%) OF PATIENTS
  Red Scaly face/Desquamation: 1 (0.4) NUMBER OF (%) OF PATIENTS
  Skin fragility/Skin disorder: 1 (0.4) NUMBER OF (%) OF PATIENTS
AP1
  AP1 antagonism: potent AP1 antagonist
[4]; 6 mg per day, after 30 days
  psoriasis symptoms and lesions: symptoms of itching and burning are relieved and the severity of their lesions are substantially lessened
[4]; tazarotene 6 mg per day with Ortho-Novum
  serum FSH and LH levels: remain within the normal ranges
